# Assay results from patent US8569344B2, “N-piperidinyl acetamide derivatives as calcium channel blockers” (Zalicus Pharmaceuticals Ltd., priority 2008, dated 2013).
# Columns and labels:
# [1] = target: T1, human α1G T-type channels (Homo sapiens, UniProt O43497); test: T-type calcium channel block, whole cell patch clamp in HEK cells (α1G); type: cell-based; conditions: HEK cells, patch clamp, mainly non-inactivated protocol; values above 10 μM shown as 10 μM, below 0.30 μM shown as 0.30 μM; read-out: T-type Calcium Channel Block α1G IC50
# T1 construct: expressed in transfected cells; host or cells: HEK 293
# [2] = target: T2, human α1H T-type channels (Homo sapiens, UniProt O95180); test: T-type calcium channel block, whole cell patch clamp in HEK cells (α1H); type: cell-based; conditions: HEK cells, patch clamp, mainly non-inactivated protocol; values above 10 μM shown as 10 μM; read-out: T-type Calcium Channel Block α1H IC50
# T2 construct: expressed in transfected cells; host or cells: HEK 293
# T2 sequence (O95180 whole entry): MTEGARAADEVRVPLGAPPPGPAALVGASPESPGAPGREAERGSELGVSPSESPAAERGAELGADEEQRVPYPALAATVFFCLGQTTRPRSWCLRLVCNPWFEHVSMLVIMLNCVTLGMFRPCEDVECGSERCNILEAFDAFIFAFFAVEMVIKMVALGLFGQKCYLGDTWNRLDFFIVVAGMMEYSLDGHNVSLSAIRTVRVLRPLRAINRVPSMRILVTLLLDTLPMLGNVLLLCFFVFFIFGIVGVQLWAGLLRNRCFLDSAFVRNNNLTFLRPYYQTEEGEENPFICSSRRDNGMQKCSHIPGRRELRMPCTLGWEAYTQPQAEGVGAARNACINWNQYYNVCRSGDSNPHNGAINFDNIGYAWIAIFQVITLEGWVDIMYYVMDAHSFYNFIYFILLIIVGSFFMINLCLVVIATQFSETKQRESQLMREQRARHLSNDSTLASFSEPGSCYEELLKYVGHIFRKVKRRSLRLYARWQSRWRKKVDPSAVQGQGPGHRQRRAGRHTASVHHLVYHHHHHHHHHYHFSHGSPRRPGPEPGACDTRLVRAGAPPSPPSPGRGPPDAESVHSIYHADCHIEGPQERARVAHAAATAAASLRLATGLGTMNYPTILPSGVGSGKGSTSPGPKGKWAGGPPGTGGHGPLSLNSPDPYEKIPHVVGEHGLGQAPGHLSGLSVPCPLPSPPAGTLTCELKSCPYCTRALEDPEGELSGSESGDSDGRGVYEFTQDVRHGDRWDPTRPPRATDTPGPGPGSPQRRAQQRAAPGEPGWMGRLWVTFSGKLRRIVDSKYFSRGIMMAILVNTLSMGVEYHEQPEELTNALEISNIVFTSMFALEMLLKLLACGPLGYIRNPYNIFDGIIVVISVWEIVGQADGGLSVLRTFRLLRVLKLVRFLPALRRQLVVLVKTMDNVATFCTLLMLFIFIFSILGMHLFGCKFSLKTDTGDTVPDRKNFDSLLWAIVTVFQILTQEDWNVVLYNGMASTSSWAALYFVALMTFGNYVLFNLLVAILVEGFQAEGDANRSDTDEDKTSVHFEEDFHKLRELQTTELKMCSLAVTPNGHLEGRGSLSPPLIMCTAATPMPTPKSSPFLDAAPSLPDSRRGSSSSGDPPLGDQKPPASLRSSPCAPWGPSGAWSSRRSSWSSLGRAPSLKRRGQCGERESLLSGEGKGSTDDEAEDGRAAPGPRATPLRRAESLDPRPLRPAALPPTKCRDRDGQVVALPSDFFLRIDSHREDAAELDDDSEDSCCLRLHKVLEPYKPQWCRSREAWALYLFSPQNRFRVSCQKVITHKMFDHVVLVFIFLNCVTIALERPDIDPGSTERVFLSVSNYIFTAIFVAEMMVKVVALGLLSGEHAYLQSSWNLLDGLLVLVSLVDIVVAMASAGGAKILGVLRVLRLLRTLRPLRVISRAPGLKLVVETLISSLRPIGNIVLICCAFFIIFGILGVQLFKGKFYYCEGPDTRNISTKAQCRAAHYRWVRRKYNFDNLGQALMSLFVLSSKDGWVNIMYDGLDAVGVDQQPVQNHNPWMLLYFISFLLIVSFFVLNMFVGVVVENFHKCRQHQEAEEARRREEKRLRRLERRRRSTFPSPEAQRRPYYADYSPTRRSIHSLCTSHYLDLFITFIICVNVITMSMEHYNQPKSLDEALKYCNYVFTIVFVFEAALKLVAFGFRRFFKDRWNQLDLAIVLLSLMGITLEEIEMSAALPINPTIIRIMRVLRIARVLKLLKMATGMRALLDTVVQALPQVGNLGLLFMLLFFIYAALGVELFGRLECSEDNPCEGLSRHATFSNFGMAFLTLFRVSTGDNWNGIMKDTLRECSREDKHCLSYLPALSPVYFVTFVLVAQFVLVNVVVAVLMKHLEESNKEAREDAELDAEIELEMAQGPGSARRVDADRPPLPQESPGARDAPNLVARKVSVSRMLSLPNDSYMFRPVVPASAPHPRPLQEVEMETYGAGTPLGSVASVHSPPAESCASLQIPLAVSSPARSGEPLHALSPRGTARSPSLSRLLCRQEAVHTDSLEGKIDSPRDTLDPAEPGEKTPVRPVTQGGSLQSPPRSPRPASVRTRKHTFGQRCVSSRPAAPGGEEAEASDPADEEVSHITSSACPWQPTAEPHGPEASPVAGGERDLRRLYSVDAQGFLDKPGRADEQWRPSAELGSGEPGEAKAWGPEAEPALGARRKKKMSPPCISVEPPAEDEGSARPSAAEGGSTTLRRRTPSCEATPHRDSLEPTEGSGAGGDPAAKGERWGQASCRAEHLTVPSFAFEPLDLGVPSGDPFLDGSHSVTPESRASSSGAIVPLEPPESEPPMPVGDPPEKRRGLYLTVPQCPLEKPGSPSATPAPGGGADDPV
# T1 sequence (O43497 whole entry): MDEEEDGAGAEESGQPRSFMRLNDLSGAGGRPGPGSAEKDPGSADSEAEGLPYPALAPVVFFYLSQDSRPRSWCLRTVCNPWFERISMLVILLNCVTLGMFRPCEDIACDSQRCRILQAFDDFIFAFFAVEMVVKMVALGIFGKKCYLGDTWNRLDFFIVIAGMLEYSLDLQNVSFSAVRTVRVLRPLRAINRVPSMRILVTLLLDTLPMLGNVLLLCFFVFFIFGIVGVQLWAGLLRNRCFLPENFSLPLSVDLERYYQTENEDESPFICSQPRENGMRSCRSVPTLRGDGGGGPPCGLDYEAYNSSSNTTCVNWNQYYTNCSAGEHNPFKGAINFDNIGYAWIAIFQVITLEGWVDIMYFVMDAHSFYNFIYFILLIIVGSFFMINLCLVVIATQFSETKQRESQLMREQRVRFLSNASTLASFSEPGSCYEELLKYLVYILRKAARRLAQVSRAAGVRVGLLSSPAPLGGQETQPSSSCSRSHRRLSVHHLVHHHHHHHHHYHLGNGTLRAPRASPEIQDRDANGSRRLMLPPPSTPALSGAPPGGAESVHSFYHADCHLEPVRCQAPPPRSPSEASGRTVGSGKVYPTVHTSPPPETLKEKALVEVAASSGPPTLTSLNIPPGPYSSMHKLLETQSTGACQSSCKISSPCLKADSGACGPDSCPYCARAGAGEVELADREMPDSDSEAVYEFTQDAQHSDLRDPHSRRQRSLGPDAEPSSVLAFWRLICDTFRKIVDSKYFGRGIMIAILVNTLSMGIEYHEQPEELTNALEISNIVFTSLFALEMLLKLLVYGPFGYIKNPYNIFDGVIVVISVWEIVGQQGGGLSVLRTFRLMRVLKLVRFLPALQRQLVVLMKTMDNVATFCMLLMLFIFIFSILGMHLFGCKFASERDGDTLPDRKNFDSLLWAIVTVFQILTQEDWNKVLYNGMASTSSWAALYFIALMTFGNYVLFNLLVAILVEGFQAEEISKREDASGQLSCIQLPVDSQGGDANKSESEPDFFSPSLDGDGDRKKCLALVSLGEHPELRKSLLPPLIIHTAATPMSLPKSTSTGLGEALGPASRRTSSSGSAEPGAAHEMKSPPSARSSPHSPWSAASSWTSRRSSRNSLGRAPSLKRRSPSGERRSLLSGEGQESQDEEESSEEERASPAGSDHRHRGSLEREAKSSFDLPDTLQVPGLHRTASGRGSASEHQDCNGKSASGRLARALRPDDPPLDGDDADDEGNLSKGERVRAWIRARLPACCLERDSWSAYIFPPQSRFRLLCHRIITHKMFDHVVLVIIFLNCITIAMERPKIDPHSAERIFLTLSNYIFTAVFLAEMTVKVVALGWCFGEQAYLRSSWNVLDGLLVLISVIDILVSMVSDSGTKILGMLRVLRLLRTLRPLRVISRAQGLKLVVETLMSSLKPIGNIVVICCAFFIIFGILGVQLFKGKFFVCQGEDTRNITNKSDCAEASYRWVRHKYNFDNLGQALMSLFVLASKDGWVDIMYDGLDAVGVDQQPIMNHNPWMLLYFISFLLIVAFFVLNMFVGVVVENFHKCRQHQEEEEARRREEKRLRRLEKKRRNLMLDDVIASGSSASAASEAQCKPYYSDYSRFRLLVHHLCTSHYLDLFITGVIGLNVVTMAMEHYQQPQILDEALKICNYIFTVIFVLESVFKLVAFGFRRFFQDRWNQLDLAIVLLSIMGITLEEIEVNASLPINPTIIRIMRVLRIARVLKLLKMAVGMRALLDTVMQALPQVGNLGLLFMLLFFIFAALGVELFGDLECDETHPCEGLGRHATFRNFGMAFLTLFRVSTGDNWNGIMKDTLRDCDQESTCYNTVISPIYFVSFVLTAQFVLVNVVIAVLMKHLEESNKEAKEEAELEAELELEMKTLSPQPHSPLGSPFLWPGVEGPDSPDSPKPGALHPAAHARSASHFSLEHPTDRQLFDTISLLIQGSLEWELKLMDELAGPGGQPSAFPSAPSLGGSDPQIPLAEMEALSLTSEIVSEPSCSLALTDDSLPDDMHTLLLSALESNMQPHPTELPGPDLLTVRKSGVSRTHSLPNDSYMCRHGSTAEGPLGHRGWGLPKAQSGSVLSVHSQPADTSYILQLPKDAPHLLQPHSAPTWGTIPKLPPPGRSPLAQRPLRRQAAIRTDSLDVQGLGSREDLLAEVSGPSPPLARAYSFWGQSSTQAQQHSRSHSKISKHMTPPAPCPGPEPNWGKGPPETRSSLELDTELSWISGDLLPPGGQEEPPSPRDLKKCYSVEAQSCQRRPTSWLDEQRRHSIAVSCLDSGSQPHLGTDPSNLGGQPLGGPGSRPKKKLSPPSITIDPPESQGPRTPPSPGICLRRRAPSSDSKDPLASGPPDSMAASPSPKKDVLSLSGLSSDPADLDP
IC50 [1] [nM],IC50 [2] [nM],Compound
> 10000,> 10000,"O=C(NCC1CCN(C(=O)CN2CCC(F)(F)C2)CC1)c1cc(C(F)(F)F)cc(C(F)(F)F)c1 [Compound 226, N-((1-(2-(3,3-difluoropyrrolidin-1-yl)acetyl)piperidin-4-yl)methyl)-3,5-bis(trifluoromethyl)benzamide]"
1670,2350,"O=C(NCC1CCN(CCNS(=O)(=O)C2CC2)CC1)c1cccc(C(F)(F)F)c1 [Compound 228, N-((1-(2-(cyclopropanesulfonamido)ethyl)piperidin-4-yl)methyl)-3-(trifluoromethyl)benzamide]"
4760,850,"O=C(NCC1CCN(CCNS(=O)(=O)C2CC2)CC1)c1cc(F)cc(C(F)(F)F)c1 [Compound 230, N-((1-(2-(cyclopropanesulfonamido)ethyl)piperidin-4-yl)methyl)-3-fluoro-5-(trifluoromethyl)benzamide]"
> 10000,> 10000,"O=C(/C=C/c1cc(F)cc(F)c1)NCC1CCN(CCNS(=O)(=O)C2CC2)CC1 [Compound 231, (E)-N-((1-(2-(cyclopropanesulfonamido)ethyl)piperidin-4-yl)methyl)-3-(3,5-difluorophenyl)acrylamide]"
5010,2870,"O=C(NCC1CCN(CCNS(=O)(=O)C2CC2)CC1)c1ccc(OC(F)(F)F)cc1 [Compound 232, N-((1-(2-(cyclopropanesulfonamido)ethyl)piperidin-4-yl)methyl)-4-(trifluoromethoxy)benzamide]"
2040,1380,"Cc1cc(C)cc(C(=O)NCC2CCN(CCNS(=O)(=O)C3CC3)CC2)c1 [Compound 233, N-((1-(2-(cyclopropanesulfonamido)ethyl)piperidin-4-yl)methyl)-3,5-dimethylbenzamide]"
1450,970,"O=C(NCC1CCN(CCNS(=O)(=O)C2CC2)CC1)c1cccc(OC(F)(F)F)c1 [Compound 234, N-((1-(2-(cyclopropanesulfonamido)ethyl)piperidin-4-yl)methyl)-3-(trifluoromethoxy)benzamide]"
< 300,440,"COc1cc(C(=O)NCC2CCN(CCNS(=O)(=O)C3CC3)CC2)cc(C(F)(F)F)c1 [Compound 235, N-((1-(2-(cyclopropanesulfonamido)ethyl)piperidin-4-yl)methyl)-3-methoxy-5-(trifluoromethyl)benzamide]"
860,1720,"CC(C)S(=O)(=O)NCCN1CCC(CNC(=O)c2cccc(Cl)c2)CC1 [Compound 236, 3-chloro-N-((1-(2-(1-methylethylsulfonamido)ethyl)piperidin-4-yl)methyl)benzamide]"
> 10000,> 10000,"CC(C)(C)c1ccc(C(=O)NCC2CCN(CCNS(=O)(=O)C3CC3)CC2)cc1 [Compound 238, 4-tert-butyl-N-((1-(2-(cyclopropanesulfonamido)ethyl)piperidin-4-yl)methyl)benzamide]"
< 300,1730,"CC(C)(C)NCC(=O)N1CCC(CNC(=O)c2cc(C(F)(F)F)cc(C(F)(F)F)c2)CC1 [Compound 239, N-((1-(2-(tert-butylamino)acetyl)piperidin-4-yl)methyl)-3,5-bis(trifluoromethyl)benzamide]"

# Second part, the compound before the results:
Compound,IC50 [1] [nM],IC50 [2] [nM]
"CC(C)(C)OC(=O)NCCN1CCC(CNC(=O)c2cc(Cl)cc(C(F)(F)F)c2)CC1 [Compound 40, tert-butyl 2-(4-((3-chloro-5-(trifluoromethyl)benzamido)methyl)piperidin-1-yl)ethylcarbamate]",< 300,160
"CC(C)(C)OC(=O)NCCN1CCC(CNC(=O)c2cc(Br)cc(C(F)(F)F)c2)CC1 [Compound 41, tert-butyl 2-(4-((3-bromo-5-(trifluoromethyl)benzamido)methyl)piperidin-1-yl)ethylcarbamate]",< 300,150
"Cc1cc(C)cc(C(=O)NCC2CCN(CCNC(=O)OC(C)(C)C)CC2)c1 [Compound 42, tert-butyl 2-(4-((3,5-dimethylbenzamido)methyl)piperidin-1-yl)ethylcarbamate]",1640,760
"CC(C)(C)OC(=O)NCCN1CCC(CNC(=O)c2cc(Cl)cc(Cl)c2)CC1 [Compound 43, tert-butyl 2-(4-((3,5-dichlorobenzamido)methyl)piperidin-1-yl)ethylcarbamate]",< 300,150
"CC(C)(C)OC(=O)NCCN1CCC(CNC(=O)c2cccc(OC(F)(F)F)c2)CC1 [Compound 44, tert-butyl 2-(4-((3-(trifluoromethoxy)benzamido)methyl)piperidin-1-yl)ethylcarbamate]",620,320
"CC(C)(C)OC(=O)NCCN1CCC(CNC(=O)c2cc(F)cc(F)c2)CC1 [Compound 47, tert-butyl 2-(4-((3,5-difluorobenzamido)methyl)piperidin-1-yl)ethylcarbamate]",3110,880
"CC(C)(C)OC(=O)NCCN1CCC(CNC(=O)c2cccc(Cl)c2)CC1 [Compound 48, tert-butyl 2-(4-((3-chlorobenzamido)methyl)piperidin-1-yl)ethylcarbamate]",1570,790
"CC(C)(C)OC(=O)NCCN1CCC(CNC(=O)c2cc(C(C)(C)C)cc(C(C)(C)C)c2)CC1 [Compound 49, tert-butyl 2-(4-((3,5-di-tert-butylbenzamido)methyl)piperidin-1-yl)ethylcarbamate]",340,7300
"CC(C)(C)OC(=O)NCCN1CCC(CNC(=O)c2ccc(Oc3ccccc3)cc2)CC1 [Compound 57, tert-buyl 2-(4-((4-phenoxybenzamido)methyl)piperidin-1-yl)ethylcarbamate]",1050,> 10000
"O=C(NCC1CCN(C(=O)[C@@H]2CCCCN2)CC1)c1cc(C(F)(F)F)cc(C(F)(F)F)c1 [Compound 88, (S)-N-((1-(piperidine-2-carbonyl)piperidin-4-yl)methyl)-3,5-bis(trifluoromethyl)benzamide]",> 10000,> 10000
"CC(C)(C)C(C)(O)C(=O)N1CCC(CNC(=O)c2cc(C(F)(F)F)cc(C(F)(F)F)c2)CC1 (stereo not drawn) [Compound 89, N-((1-(2-hydroxy-2,3,3-trimethylbutanoyl)piperidin-4-yl)methyl)-3,5-bis(trifluoromethyl)benzamide]",4100,> 10000
"CC(C)(C)C(O)CN1CCC(CC(=O)Nc2cc(F)cc(C(F)(F)F)c2)CC1 (stereo not drawn) [Compound 169, N-(3-fluoro-5-(trifluoromethyl)phenyl)-2-(1-(2-hydroxy-3,3-dimethylbutyl)piperidin-4-yl)acetamide]",< 300,230
"Cc1ccc(-c2csc(NC(=O)CC3CCN(CC(O)C(C)(C)C)CC3)n2)cc1 (stereo not drawn) [Compound 172, 2-(1-(2-hydroxy-3,3-dimethylbutyl)piperidin-4-yl)-N-(4-p-tolylthiazol-2-yl)acetamide]",1620,> 10000
"CC(C)(C)C(O)CN1CCC(CC(=O)NCc2ccc(Oc3ccccc3)cc2)CC1 (stereo not drawn) [Compound 174, 2-(1-(2-hydroxy-3,3-dimethylbutyl)piperidin-4-yl)-N-(4-phenoxybenzyl) acetamide]",2480,> 10000
"O=C(CC1CCN(C(=O)[C@@H]2CCCCN2)CC1)Nc1cc(C(F)(F)F)cc(C(F)(F)F)c1 [Compound 195, (S)-N-(3,5-bis(trifluoromethyl)phenyl)-2-(1-(piperidine-2-carbonyl)piperidin-4-yl)acetamide]",4780,1970
"CC(C)(C)OC(=O)NC(CN1CCC(CC(=O)NCCc2c[nH]c3ccc(F)cc23)CC1)C(C)(C)C (stereo not drawn) [Compound 196, tert-butyl 1-(4-(2-(2-(5-fluoro-1H-indol-3-yl)ethylamino)-2-oxoethyl)piperidin-1-yl)-3,3-dimethylbutan-2-ylcarbamate]",> 10000,> 10000
"CC(C)(C)OC(=O)NC(CN1CCC(CC(=O)NCc2cc(Cl)cc(Cl)c2)CC1)C(C)(C)C (stereo not drawn) [Compound 198, tert-butyl 1-(4-(2-(3,5-dichloro-benzylamino)-2-oxoethyl)piperidin-1-yl)-3,3-dimethylbutan-2-ylcarbamate]",400,1300
"CC(C)(C)C(CN1CCC(CC(=O)NC(c2cccc(F)c2)c2cccc(F)c2)CC1)NS(=O)(=O)C1CC1 (stereo not drawn) [Compound 221, N-(bis(3-fluorophenyl)methyl)-2-(1-(2-(cyclopropanesulfonamido)-3,3-dimethylbutyl)piperidin-4-yl)acetamide]",4080,> 10000
"CC(C)S(=O)(=O)NC(CN1CCC(CC(=O)NC(c2cccc(F)c2)c2cccc(F)c2)CC1)C(C)(C)C (stereo not drawn) [Compound 222, N-(bis(3-fluorophenyl)methyl)-2-(1-(3,3-dimethyl-2-(1-methylethylsulfonamido)butyl)piperidin-4-yl)acetamide]",2030,> 10000
"CCOC(=O)NC(CN1CCC(CC(=O)NCc2cc(Cl)cc(Cl)c2)CC1)C(C)(C)C (stereo not drawn) [Compound 224, ethyl 1-(4-(2-(3,5-dichlorobenzyl-amino)-2-oxoethyl)piperidin-1-yl)-3,3-dimethylbutan-2-ylcarbamate]",3760,6190
"CC(C)COC(=O)NC(CN1CCC(CC(=O)NCc2cc(Cl)cc(Cl)c2)CC1)C(C)(C)C (stereo not drawn) [Compound 225, isobutyl 1-(4-(2-(3,5-dichlorobenzyl-amino)-2-oxoethyl)piperidin-1-yl)-3,3-dimethylbutan-2-ylcarbamate]",520,770
"CC(C)(C)Oc1cccc(C(=O)NCC2CCN(CCNS(=O)(=O)C3CC3)CC2)c1 [Compound 229, 3-tert-butoxy-N-((1-(2-(cyclopropanesulfonamido)ethyl)piperidin-4-yl)methyl)benzamide]",> 10000,> 10000
